According to patent publication US4473578A, “β-Lactam antibiotics and their use” (Beecham Group Limited, priority 1979, dated 1984):
Converted amounts (≈) assume the structure as drawn. Counter-ions that a name gives are not always drawn. Like-named read-outs stand apart in the source and are kept apart here.

Columns and labels:
Experiment in all cases: MIC in agar
Type in all cases: cell-based
E. coli ESS = settings: Escherichia coli
Text: | (μg/ml) in agar of compound

Streptococcus faecalis I = settings: Enterococcus faecalis; in agar; Streptococcus faecalis I; read-out: M.I.C.
Text: (§1) a. Antibacterial effectiveness of compounds of
(§2) Examples 6 and 7 in agar.
(§3) (μg/ml) in agar of compound

Serratia marcescens US20 = settings: in agar; Serratia marcescens US20; read-out: M.I.C.
Text: as §1, §2, §3

Escherichia coli JT39 = test system: Escherichia coli JT39
Text: as §1, §2, §3

Klebsiella aerogenes A = settings: in agar; Klebsiella aerogenes A; read-out: M.I.C.
Text: as §1, §2, §3

[1] = test system: Staphylococcus aureus 1517; settings: in agar; Staphylococcus aureus 1517; read-out: M.I.C.
Text: as §1, §2, §3

Proteus vulgaris W091 = settings: in agar; Proteus vulgaris W091; read-out: M.I.C.
Text: as §1, §2, §3

Citrobacter freundii E8 = settings: in agar; Citrobacter freundii E8; read-out: M.I.C.
Text: as §1, §2, §3

Escherichia coli 0111 = test system: Escherichia coli 0111
Text: as §1, §2, §3

[2] = test system: Streptococcus pyogenes CN10; settings: in agar; Streptococcus pyogenes CN10; read-out: M.I.C.
Text: as §1, §2, §3

[3] = test system: Streptococcus pneumoniae CN33
Text: as §1, §2, §3

Shigella sonnei MB 11967 = settings: MB11967
Text: as §1, §2, §3

Pseudomonas aeruginosa A = settings: in agar; Pseudomonas aeruginosa A; read-out: M.I.C.
Text: as §1, §2, §3

Proteus mirabilis C977 = settings: in agar; Proteus mirabilis C977; read-out: M.I.C.
Text: as §1, §2, §3

Proteus rettgeri WM16 = settings: Providencia rettgeri; in agar; Proteus rettgeri WM16; read-out: M.I.C.
Text: as §1, §2, §3

[4] = test system: Staphylococcus aureus Oxford; settings: in agar; Staphylococcus aureus Oxford; read-out: M.I.C.
Text: as §1, §2, §3

Enterobacter cloacae N1 = settings: in agar; Enterobacter cloacae N1; read-out: M.I.C.
Text: as §1, §2, §3

[5] = test system: Salmonella typhimurium CT10; settings: Salmonella enterica; in agar; Salmonella typhimurium CT10; read-out: M.I.C.
Text: as §1, §2, §3

Bacillus subtilis A = settings: in agar; Bacillus subtilis A; read-out: M.I.C.
Text: as §1, §2, §3

[6] = test system: Staphylococcus aureus Russell; settings: in agar; Staphylococcus aureus Russell; read-out: M.I.C.
Text: as §1, §2, §3

Proteus morganii 1580 = settings: Morganella morganii; in agar; Proteus morganii 1580; read-out: M.I.C.
Text: as §1, §2, §3

`C[C@H](O)[C@@H]1C(=O)N2C(C(=O)O)=C(S/C=C\C(=O)OCCN)C[C@H]12` [Example 20, (5R,6R)-3-[2-(Z)-(2-Aminoethoxycarbonyl)ethenylthio]-6-[(S)-1-hydroxyethyl]-7-oxo-1-azabicyclo[3.2.0]hept-2-ene-2-carboxylic acid] gave an MIC (E. coli ESS) of no more than 0.1 mg/L, an MIC (Streptococcus faecalis I) of no more than 0.1 mg/L and an MIC (Serratia marcescens US20) of no more than 0.1 mg/L. The MIC (Escherichia coli JT39; Escherichia coli, JT39) was 0.2 mg/L (≈ 0.584 µM), the MIC (Klebsiella aerogenes A) was no more than 0.1 mg/L and the MIC [1] was 0.2 mg/L (≈ 0.584 µM). For the same compound, the MIC (Proteus vulgaris W091) was 0.4 mg/L (≈ 1.17 µM), the MIC (Citrobacter freundii E8) was 0.2 mg/L (≈ 0.584 µM) and the MIC (Escherichia coli 0111) was no more than 0.1 mg/L. The MIC [2] was no more than 0.1 mg/L, the MIC [3] was no more than 0.1 mg/L and the MIC (Shigella sonnei MB 11967) was 0.2 mg/L (≈ 0.584 µM). It also gave an MIC (Pseudomonas aeruginosa A) of 25 mg/L (≈ 73 µM), an MIC (Proteus mirabilis C977) of 0.4 mg/L (≈ 1.17 µM) and an MIC (Proteus rettgeri WM16) of 0.2 mg/L (≈ 0.584 µM). For the same compound, the MIC [4] was no more than 0.1 mg/L, the MIC (Enterobacter cloacae N1) was 0.2 mg/L (≈ 0.584 µM) and the MIC [5] was no more than 0.1 mg/L. It also gave an MIC (Bacillus subtilis A) of no more than 0.1 mg/L.
In the case of `C[C@H](O)[C@@H]1C(=O)N2C(C(=O)O)=C(S/C=C\C(=O)O)C[C@H]12` [Example 24, The Disodium salt of (5R,6R)-3-[(Z)-2-carboxyethenylthio]-6-[(S)-1-hydroxyethyl]-7-oxo-1-azabicyclo[3.2.0]hept-2-ene-2-carboxylic acid], the MIC (E. coli ESS) is reported as no more than 0.1 mg/L, the MIC (Streptococcus faecalis I) is reported as 2.5 mg/L and the MIC (Serratia marcescens US20) is reported as 2.5 mg/L. It also gave an MIC (Escherichia coli JT39; in agar, Escherichia coli JT39, read-out: M.I.C.) of 5 mg/L, an MIC (Klebsiella aerogenes A) of 0.2 mg/L and an MIC [1] of 5 mg/L. The MIC (Proteus vulgaris W091) was 0.5 mg/L, the MIC [6] was 0.5 mg/L and the MIC (Citrobacter freundii E8) was 1.2 mg/L. It also gave an MIC (Escherichia coli 0111) of 0.2 mg/L, an MIC [2] of no more than 0.1 mg/L and an MIC (Proteus morganii 1580) of 0.5 mg/L. The MIC [3] was no more than 0.1 mg/L, the MIC (Shigella sonnei MB 11967) was 0.5 mg/L and the MIC (Pseudomonas aeruginosa A) was greater than 50 mg/L. The MIC (Proteus mirabilis C977) was 0.5 mg/L, the MIC (Proteus rettgeri WM16) was 0.5 mg/L and the MIC [4] was 0.5 mg/L. The MIC (Enterobacter cloacae N1) was 0.5 mg/L, the MIC [5] was 0.5 mg/L and the MIC (Bacillus subtilis A) was no more than 0.1 mg/L.
